From patent publication EP0703239A1, “Aminomethylphosphonic and aminomethylphosphinic acids derivatives and their use in the treatment of degenerative articular diseases” (priority 1994, dated 1996)
Structures can show the parent of a compound that is named as a salt. Where two headings read alike, the source gives them in different places.

Key:
Rattenlebermikrosomen = assay: Inhibition of microsomal lipid peroxidation (malondialdehyde/thiobarbituric acid); assay type: biochemical, Ratte; settings: rat liver microsomes, FeSO₄ start, 10 min 37°C; read-out: IC50 Mikrosomale Lipidperoxidation
Procedure: 4. Hemmung der Mikrosomalen Lipidperoxidation […]
Alle Schritte werden bei 0°C durchgeführt. Die Leber einer Ratte wird, um alles Hämoglobin zu entfernen, mit 0,9 % NaCl-Lösung gründlich gespült. Die grob zerkleinerte Leber wird dann in 10 mM Tris/HCl pH 7,4; 250 mM Saccharose (10 ml Puffer/g Leber) gepottert. Zunächst wird 5 Minuten bei 600xg zentrifugiert. Der Überstand wird dann 10 min bei 12000xg zentrifugiert und wird mit festem CaCl₂ (117,6 mg/100 ml) auf eine Konzentration von 8 mM eingestellt. Durch Zentrifugieren bei 25000 xg (15 min) wird ein Mikrosomenniederschlag gewonnen. Dieser Niederschlag wird im gleichen Volumen Puffer (10 mM Tris/HCl pH 7,4; 150 mM KCl) rehomogenisiert und erneut 15 min bei 25000 xg zentrifugiert.
Ein Testansatz besteht aus 20 µl Mikrosomen (100 mg/ml), vgl. oben, gelöst in Puffer (250 mM Tris/HCl pH 6,6, 750 mM KCl), 10 µl 50 mM MgCl₂, 10 µl 200 mM Isocitronensäure, 10 µl 4mM NADP (3,028 mg/ml Wasser), 10 µl 25 mM Niacinamid, 10 µl Isocitratdehydrogenase (1:100 verdünnt) und 20 µl Wasser oder Testsubstanz. Gestartet wird die Reaktion mit 10 µl 0,25 mM FeSO₄. Die Inkubation dauert 10 Minuten und erfolgt bei 37°C. Gestoppt wird mit 500 µl eiskalter 20 %iger Trichloressigsäure. Entstandenes Malondialdehyd wird durch Zugabe von 500 µl 0,67 %iger Thiobarbitursäure und 30 Minuten Inkubation bei 90°C in eine pinkfarbene Verbindung überführt, die bei 532 nm gemessen wird. Die Extinktion im Kontrollansatz ohne Prüfpräparat wird auf 0 % Hemmung gesetzt, während das völlige Verschwinden des Signals 100 % Hemmung bedeutet.

Chondrozyten [1] = assay: IL-1-induced chondrocytic chondrolysis in chondrocyte agarose culture, 35S-sulfate incorporation; settings: agarose cell culture with 5 u/ml human rec. IL-1 alpha; factor relative to IL-1 treated control
IL-1beta = assay: LPS-stimulated interleukin release from human mononuclear cells, ELISA (IL-1beta); assay type: cell-based; settings: 10 µmol/l, 20-22 h, read-out: % Hemmung der Interleukin-Freisetzung
Procedure: 5. Freisetzung von Interleukinen (insbesondere IL-1β) aus humanen mononuklearen Zellen
Die erfindungsgemäßen Verbindungen haben eine starke Hemmwirkung auf die Freisetzung von Interleukinen aus Humanzellen. Dies ist von großer pharmakologischer Bedeutung weil Interleukine die unerwünschte Degradation der Knorpelmatrix auslösen können.
10 ml Humanblut, stabilisiert mit 1 ml 3,8 %iger Natriumcitrat-Lösung, werden mit 10 ml PM16 (Serva, Heidelberg) verdünnt und mit 15 ml Lymphoprep (Dr. Molter GmbH, Heidelberg) unterschichtet. Die Proben werden 40 Minuten bei 400 xg (1600 rpm Minifuge 2, Heraeus, Osterode) zentrifugiert (Raumtemperatur). Die mononuklearen Zellen sind als weißer Ring an der Grenze Lymphoprep/Plasma sichtbar. Dieser Ring wird mit einer Spritze vorsichtig entnommen, mit dem gleichen Volumen PM16 verdünnt und 10 Minuten bei 400 xg zentrifugiert. Der Niederschlag wird mit ∼ 10 ml RPMI 1640 (+ 300 mg/l L-Glutamin, Gibco, Eggenstein) gewaschen. Nach Resuspendieren der Zellen in ∼ 1 ml RPMI 1640 (+ 300 mg/l L-Glutamin, + 25 mM HEPES, + 100 µg/ml Streptomycin, + 100 µg/ml Penicillin) wird die Zelldichte mit einem Coulter Counter JT (Coulter Diagnostics) bestimmt und auf 5 * 10⁶/ml eingestellt. Die Zellen bestehen typischerweise aus 90 % Lymphozyten und 10 % Monozyten.
230 µl mononukleare Zellen werden mit 10 µl Testsubstanz (10 µM in DMSO/Wasser 1/10) und 10 µl Lipopolysaccharide (500 µg gelöst in 1 ml Dimethylsulfoxid (DMSO) und vor Testbeginn 1/10 mit Wasser verdünnt, von Salmonella abortus equi, Sigma, Deisenhofen) 20-22 Stunden bei 37°C; 5 % CO₂ inkubiert. Die Proben werden in einem Eisbad auf 0°C abgekühlt und in einer Sigma-Zentrifuge zentrifugiert (2 Minuten; 2000 rpm). Aliquote des Überstandes werden mit einem kommerziell erhältlichen ELISA (Biermann, Bad Nauheim) bestimmt.

[2] = system: Matrix Metalloproteasen (MMP); assay: Inhibition of matrix metalloproteases from supernatant of PMA-induced synoviocytes, fluorogenic substrate; assay type: biochemical, Kaninchen
From the text: 3. Inhibierung von Matrix Metalloproteasen (MMP)
Die erfindungsgemäßen Verbindungen zeigten deutliche inhibitorische Wirkungen auf proteolytische Enzyme, die sogenannten Matrix Metalloproteasen. Dies ist von großer Bedeutung, weil diese dem Fachmann an sich bekannten Enzyme am proteolytischen Abbau der intakten Knorpelmatrix entscheidend beteiligt sind.
Kaninchen Synoviocyten (HIG-82; ATCC, Rockville, Maryland, USA) werden in Nährmedium HAM'S F12 (Sigma, Deisenhofen, Deutschland, Katalog Nr. N-6760) mit 10 % fötalem Rinder Serum (Sigma, Deisenhofen, Deutschland, Katalog Nr. F-2442), zusammen mit Penicillin 100 U/ml sowie Streptomycin 100 µg/ml, kultiviert. Nach konfluentem Zellwachstum wird die MMP Expression in serumfreiem HAM'S F12 durch Zugabe von 0,3 µmol/l Phorbol-12-Myristat-13-Acetat induziert. Nach 20 h Inkubationszeit bei 37°C wird der Überstand abgenommen.
Der Überstand wird mit Trypsin (5 µg/ml) aktiviert. Nach 15 Minuten (min) bei 37°C wird die Aktivierung durch Zugabe von 1 mmol/l Phenylmethylsulfonylfluorid (PMSF) beendet und für weitere 10 min nachinkubiert. Das Gesamtvolumen des Ansatzes beträgt 210 µl.
Messung der MMP Aktivität (Lit.: C.G. Knight et al.; FEBS Lett. 296, 263 (1992)):
20 µl des obengenannten Überstandes werden 1:10 verdünnt, und mit 240 µl Puffer (0,1 Tris/HCl pH 7,5; 0,1 M NaCl; 0,01 M CaCl₂; 0,05 % Brij) gemischt. Die Prüfsubstanz wird in der angegebenen Konzentration (s. Tabelle) zugegeben. Nach einer Inkubationszeit von 15 min wird die Reaktion durch Zugabe von 20 µmol/l Fluoreszenz-Substanz ((7-Methoxycoumarin-4-yl)acetyl-pro-Leu-Gly-Leu-[3-(2',4'-dinitrophenyl)-L-2,3-diaminopropionyl]-Ala-Arg-NH₂; Bachem, Heidelberg, Deutschland, Kat. Nr.: M-1895) gestartet. Die Reaktion wird nach 30 min durch Zugabe von 10 mmol/l EDTA beendet. Das Gesamtvolumen des Ansatzes beträgt 320 µl. Als Meßparameter dienen die Fluoreszenzintensitäten bei λex: 328 nm und […]. Um die mögliche Eigenfluoreszens der Prüfsubstanzen zu berücksichtigen, werden die Fluoreszenzintensitäten von Parallel-Messungen ohne Substrat von den Messwerten mit Substrat abgezogen. Alle Operationen erfolgen bei 20°C. Im Kontrollexperiment ohne Hemmstoff wird die Fluoreszenz entsprechen 0 % Hemmung gesetzt, während völlige Auslöschung der Fluoreszenz 100 % Hemmung bedeutet.

Chondrozyten [3] = assay: Stimulation of cartilage matrix (proteoglycan) synthesis in chondrocyte agarose culture, 35S-sulfate incorporation; assay type: cell-based, Rinder; settings: for fold induction at 10 µM: Chondrocyte, read-out: Stimulationsfaktor der Proteoglykansynthese
From the text: 1. Wirksamkeit in der Synthese-Stimulierung von Knorpel-Matrix, Prüfung in der Chondrozyten-Kultur
Zellen: Den Fußgelenken frisch geschlachteter Rinder werden der hyaline Knorpel entnommen, mit Pronase (Boehringer Mannheim) und Collagenase (Sigma), die native Matrix enzymatisch abgebaut, und die Chondrozyten in 1 %iger "low melting Agarose" in 24er Multiwell-Schalen in einer Zelldichte von 4 x 10⁶ pro well ausplattiert.
Medium: Komplettes Medium enthält HAM's F12 (Biochrom KG, Berlin) und 10 % foetales Kälberserum (Boehringer Mannheim), die Testsubstanz wird in Medium gelöst, üblicherweise in einer Konzentration von 10⁻⁵ M zugegeben und bei jedem Mediumwechsel erneut zugefügt.
Versuchsdurchführung: Die Behandlung erfolgt vom dritten bis zehnten Tag der Primärkultur, am 9. […] Die dissoziative Extraktion der Proteoglykane aus der Agarose-Schicht wird mit 8M Guanidinium-Hydrochlorid und beigefügten Proteinase-Inhibitoren (Sigma) unter Schütteln bei 4° C über 24 h durchgeführt. Der Überstand wird nach Zentrifugation über eine PD 10 ®Sephadex G 25 Säule in freies und inkorporiertes Sulfat getrennt, dessen Aktivität nach Aliquotierung im β-Szintillationscounter gemessen wird.
Auswertung: Der Parameter für die Matrixproduktion der Chondrozyten ist die Menge synthetisierter Proteoglykane, gemessen als Sulfatinkorporation in cpm. Aus vier Wells pro Gruppe wird der Mittelwert errechnet. Dieser wird durch den Mittelwert der unbehandelten Kontrolle dividiert, und ergibt somit einen Stimulationsfaktor, der bei Stimulation der Matrixsynthese größer 1 ist, bei Hemmung derselben durch Substanzwirkung kleiner 1, und bei unveränderter Matrixsynthese gleich 1 ist.
Als Standard wird Diacerein eingesetzt, das unter dem Markennamen "Artodar" von der Firma Proter bzw. […] Tabelle II

[4] = agarose cell culture, test substance usually 10⁻⁵ M, mean sulfate incorporation divided by untreated control (>1 = stimulation)

| Molecule | IC50 (Rattenlebermikrosomen) [nM] | Stimulationsfaktor der Proteoglykansynthese (Chondrozyten [1]) | fold induction at 10 µM (Chondrozyten [3]) | further results |
| --- | --- | --- | --- | --- |
| CCCCOP(=O)(OCCCC)C(NCc1ccc2c(c1)OCO2)c1cc(C(C)(C)C)c(O)c(C(C)(C)C)c1 (centres unmarked) [Beispiel 31] | 2180 | 1,7 | – | inhibition at 10 µM (IL-1beta): 32% |
| CCCCOP(=O)(OCCCC)C(Nc1ccc2c(c1)OCO2)c1cc(C(C)(C)C)c(O)c(C(C)(C)C)c1 (centres unmarked) [Beispiel 63] | 240 | 1,5 | – | Hemmung der MMP ([2]; 10 µM): 26%; Hemmung der MMP ([2]; 30 µM): 60%; inhibition at 10 µM (IL-1beta): 31% |
| CCOP(C)(=O)C(Nc1ccc2c(c1)OCO2)c1cc(C(C)(C)C)c(O)c(C(C)(C)C)c1 (centres unmarked) [Beispiel 59] | – | – | – | Hemmung der MMP ([2]; 10 µM): 19%; Hemmung der MMP ([2]; 30 µM): 43% |
| CCCCOP(=O)(OCCCC)C(Nc1ccc(Cl)c(Cl)c1)c1cc(C(C)(C)C)c(O)c(C(C)(C)C)c1 (centres unmarked) [Beispiel 49] | > 10000 | 1,5 | – | fold induction at 10 µM (Chondrozyten [3]; [4]): 1.2 |
| CCCCNC(c1cc(C(C)(C)C)c(O)c(C(C)(C)C)c1)P(=O)(OCC)OCC (centres unmarked) [Beispiel 6] | 2250 | 1,4 | 1.2 | – |
| CCOP(=O)(OCC)C(Nc1ccc(C=CC(=O)OC)cc1)c1cc(C(C)(C)C)c(O)c(C(C)(C)C)c1 (centres unmarked) [Beispiel 67] | 2220 | 1,9 | – | inhibition at 10 µM (IL-1beta): 26% |
| CCOP(=O)(OCC)C(Nc1ccc(OC)cc1)c1cc(C(C)(C)C)c(O)c(C(C)(C)C)c1 (centres unmarked) [Beispiel 57] | – | 1,4 | 1.5 | – |
| CCOP(=O)(OCC)C(Nc1ccc(OC)c(OC)c1)c1cc(C(C)(C)C)c(O)c(C(C)(C)C)c1 (centres unmarked) [Beispiel 58] | – | 1,2 | 2.5 | – |
| 1-(4-Chloranilino)-1-(3,5-di-tert.butyl-4-hydroxy-phenyl)-methanphosphonsäurediethylester [Beispiel 1] | 2430 | 1,5 | – | Stimulationsfaktor der Proteoglykansynthese (Chondrozyten [3]; agarose cell culture, test substance usually 10⁻⁵ M, mean sulfate incorporation divided by untreated control (>1 = stimulation), 10 µM): 1,4 |
| CC(C)(C)c1cc(C(Nc2ccc3c(c2)OCO3)[PH](=O)O)cc(C(C)(C)C)c1O (centres unmarked) [Beispiel 3] | 790 | 1,3 | – | Hemmung der MMP ([2]; 10 µM): 3%; Hemmung der MMP ([2]; 30 µM): 20%; Hemmung der MMP ([2]; 100 µM): 83% |
| CCOP(=O)(OCC)C(Nc1ccc2c(c1)OCO2)c1cc(C(C)(C)C)c(O)c(C(C)(C)C)c1 (centres unmarked) [Beispiel 61] | – | 1,3 | 2.9 | inhibition at 10 µM (IL-1beta): 24% |
| CCOP(=O)(OCC)C(Nc1ccccn1)c1cc(C(C)(C)C)c(O)c(C(C)(C)C)c1 (centres unmarked) [Beispiel 79] | 2300 | 1,2 | 1.6 | – |
| CCCOP(=O)(OCCC)C(NCc1ccc2c(c1)OCO2)c1cc(C(C)(C)C)c(O)c(C(C)(C)C)c1 (centres unmarked) [Beispiel 2, 1-(3,4-Methylendioxybenzylamino)-1-(3,5-di-tert.butyl-4-hydroxy-phenyl)methanphosphonsäure-di-n-propylester-hydrochlorid] | 2300 | 4,3 | – | fold induction at 10 µM (Chondrozyten [3]; [4]): 1.2 |
| CC(C)(C)c1cc(C(Nc2ccccc2)[PH](=O)O)cc(C(C)(C)C)c1O (centres unmarked) [Beispiel 36] | – | 2,5 | – | fold induction at 10 µM (Chondrozyten [3]; [4]): 1.2 |
| CCOP(=O)(OCC)C(Nc1ccc(NC(c2cc(C(C)(C)C)c(O)c(C(C)(C)C)c2)P(=O)(OCC)OCC)cc1)c1cc(C(C)(C)C)c(O)c(C(C)(C)C)c1 (centres unmarked) [Beispiel 74] | 1250 | 3,8 | – | Hemmung der MMP ([2]; 10 µM): 20%; Hemmung der MMP ([2]; 30 µM): 47%; Hemmung der MMP ([2]; 50 µM): 74% |
